Test results taken from US6794489B2, “Compositions and methods for treatment of sexual dysfunction” (Palatin Technologies, Inc., priority 1999, dated 2004).

Experiments:
[1] = Profiles in Monkeys Intranasally Delivered
Description: Table printed on a drawing sheet, FIG. 3
Title: Profiles in Monkeys Intranasally Delivered
First reader's note: Columns 2001, 2002 and 2003 are individual monkeys, and the last two columns are their mean and SEM; the substance name is taken from the y-axis label, printed 'Compopund 1'.

[2] = Representative Profile in Monkeys Intravenously Delivered
Description: Table printed on a drawing sheet, FIG. 2
Title: Representative Profile in Monkeys Intravenously Delivered

[3] = Pharmacokinetics in rats following IV administration; assay type: in vivo, rat; conditions: intravenous 100 μg/kg, bioassay
ferrets = assay: Ferret emesis study; assay type: in vivo; conditions: animals out of six
Description: Ferrets are a recognized model for emetic studies. The vehicle for both intravenous and intranasal administration was saline. The positive control was cisplatin, known to induce vomiting in ferrets. The data is described as the number of animals out of a group of six showing signs of vomiting.

Sprague Dawley rats [4] = assay: Induction of penile erection by intravenous injection; conditions: for Dose resulting in equivalent penile response by intravenous injection / Efficacious dose (penile erection in 100% of animals): rats; for Efficacious dose (penile erection in 100% of animals): intravenous injection
Sprague Dawley rats [5] = assay: Induction of penile erection by intranasal administration; assay type: in vivo, rat; conditions: for % Rats with Penile Erection / Number of Erections/Rat/30 Minutes: intranasal
Experimental: In another series of experiments, a dosing study was conducted in rats by nasal administration of from 15 μg per kg of body weight to 1500 μg per kg of body weight, using Nasal Formulation 1. Based on penile erectile response behavior, the peptide was efficacious at all dose amounts administered, and particularly from 25 μg/kg to 75 μg/kg, with pharacologic effect observed over the range from 15 μg/kg to 1500 μg/kg. […]

Female Long-Evans rats [6] = assay: Female sexual response, bilevel chambers; assay type: in vivo, rat; conditions: 200 μg/kg subcutaneous
Experimental: Female Long-Evans rats (200-250 g) were house in groups of 2 to 4 depending on size in plastic cages in a colony room maintained on a reversed 12:12 hour light/dark cycle at approximately 21° C. with food and water ad libitum. The rats were ovariectomized bilaterally via lumbar incisions one week prior to preliminary tests of sexual behavior. Intact Long-Evans male rats served as stimulus males, and were sexual vigorous, initiating copulatory activity with females within 15 seconds of being placed into bilevel chambers containing female rats. Following preliminary tests of sexual behavior, females were administered subcutaneous injections of estradiol benzoate, 10 μg in 0.1 mL of sesame oil, forty-eight hours prior to testing, and progesterone, 500 μg in 0.1 mL of sesame oil, four hours prior to testing. Administration of estradiol benzoate and progesterone induced full sexual receptivity in the female rats. Female rats were placed in bilevel chambers five minutes prior to the introduction of a sexual vigorous male. […] Tests were videotaped and score subsequently for appetitive level changing during the five minute period prior to the introduction of the male, lordosis quotients and reflex magnitudes, incidents of solicitation (head-wise orientation and runaway), hops and darts, pacing (level changes per mount), female mounts and defensive responses. […]

Female Long-Evans rats [7] = assay: Female sexual response, unilevel pacing chambers; assay type: in vivo, rat; conditions: 200 μg/kg subcutaneous
Description: Tests were videotaped and scored as in Example 13, with pacing defined as number of exits from and returns to the side with the male; and exist and return latencies following mounts, intromissions or ejaculations. FIGS. 8A, 8B, 8C and 8D show the results.

Sprague Dawley rats [8] = assay: Inhibition of Compound 1-induced penile erection by melanocortin antagonist; assay type: in vivo, rat; conditions: 25 or 50 μg/kg nasal in Nasal Formulation 1, control groups
[9] = PROFILE IN RATS INTRAVENOUSLY ADMINISTERED
Description: Table printed on a drawing sheet, FIG. 1
Title: PROFILE IN RATS INTRAVENOUSLY ADMINISTERED
Section band inside the table: i.v.

[10] = system: men with psychogenic erectile dysfunction; conditions: subcutaneous, 0.025 to 0.157 mg/kg, cited from earlier work

Compound: CCCC[C@H](NC(C)=O)C(=O)N[C@H]1CC(=O)NCCCC[C@@H](C(=O)O)NC(=O)[C@H](Cc2c[nH]c3ccccc23)NC(=O)[C@H](CCCNC(=N)N)NC(=O)[C@@H](Cc2ccccc2)NC(=O)[C@H](Cc2c[nH]cn2)NC1=O [Compopund 1]
- %Bioavailability [1]: 0.73%
- AUC [1]: 27.16 ng·min/mL
- Cmax [1]: 0.38 ng/mL
- Tmax [1]: 50.00 min
- AUC [2]: 3730.0 ng·min/mL
- Cmax [2]: 1149.0 ng/mL
- Tmax [2]: 0 h

Compound: CCCCC(NC(C)=O)C(=O)NC1CC(=O)NCCCCC(C(=O)O)NC(=O)C(Cc2c[nH]c3ccccc23)NC(=O)C(CCCNC(=N)N)NC(=O)C(Cc2ccccc2)NC(=O)C(Cc2c[nH]cn2)NC1=O [Compound 1, Ac-Nle-cyclo(-Asp-His-D-Phe-Arg-Trp-Lys)-OH]
- Pharmacokinetic profile in plasma [3]: bi-phasic
- Signs of vomiting (proportions) (ferrets; 10 μg/kg IV): 0/6
- Signs of vomiting (proportions) (ferrets; 30 μg/kg IV): 6/6
- Signs of vomiting (proportions) (ferrets; 100 μg/kg IN): 0/6
- Signs of vomiting (proportions) (ferrets; 100 μg/kg IV): 6/6
- Signs of vomiting (proportions) (ferrets; 300 μg/kg IN): 1/6
- Signs of vomiting (proportions) (ferrets; 500 μg/kg IN): 1/6
- % Rats with Penile Erection (Sprague Dawley rats [4]; intravenous, 0.5 μg/kg): 50%
- Number of Erections/Rat/30 Minutes (Sprague Dawley rats [4]; intravenous, 0.5 μg/kg): 0.5
- % Rats with Penile Erection (Sprague Dawley rats [4]; intravenous, 1.0 μg/kg): 100%
- Number of Erections/Rat/30 Minutes (Sprague Dawley rats [4]; intravenous, 1.0 μg/kg): 1.0
- % Rats with Penile Erection (Sprague Dawley rats [4]; intravenous, 2.0 μg/kg): 100%
- Number of Erections/Rat/30 Minutes (Sprague Dawley rats [4]; intravenous, 2.0 μg/kg): 2.0
- Rats having multiple erections (Sprague Dawley rats [4]; intravenous, 2 μg/kg, 30 minutes observation period): approximately 50%
- % Rats with Penile Erection (Sprague Dawley rats [4]; intravenous, 5.0 μg/kg): 100%
- Number of Erections/Rat/30 Minutes (Sprague Dawley rats [4]; intravenous, 5.0 μg/kg): 1.8
- % Rats with Penile Erection (Sprague Dawley rats [4]; intravenous, 10.0 μg/kg): 100%
- Number of Erections/Rat/30 Minutes (Sprague Dawley rats [4]; intravenous, 10.0 μg/kg): 2.5
- Dose resulting in equivalent penile response by intravenous injection (Sprague Dawley rats [4]): 2 μg/kg of body weight
- Efficacious dose (penile erection in 100% of animals) (Sprague Dawley rats [4]): 0.001 mg/kg
- % Rats with Penile Erection (Sprague Dawley rats [5]; 15 μg/kg): 50%
- Number of Erections/Rat/30 Minutes (Sprague Dawley rats [5]; 15 μg/kg): 0.5
- % Rats with Penile Erection (Sprague Dawley rats [5]; 25 μg/kg): 100%
- Number of Erections/Rat/30 Minutes (Sprague Dawley rats [5]; 25 μg/kg): 2.0
- % Rats with Penile Erection (Sprague Dawley rats [5]; 37 μg/kg): 100%
- Number of Erections/Rat/30 Minutes (Sprague Dawley rats [5]; 37 μg/kg): 2.0
- % Rats with Penile Erection (Sprague Dawley rats [5]; 50 μg/kg): 100%
- Number of Erections/Rat/30 Minutes (Sprague Dawley rats [5]; 50 μg/kg): 2.0
- % Rats with Penile Erection (Sprague Dawley rats [5]; 75 μg/kg): 100%
- Number of Erections/Rat/30 Minutes (Sprague Dawley rats [5]; 75 μg/kg): 2.5
- % Rats with Penile Erection (Sprague Dawley rats [5]; 500 μg/kg): 100%
- Number of Erections/Rat/30 Minutes (Sprague Dawley rats [5]; 500 μg/kg): 1.5
- % Rats with Penile Erection (Sprague Dawley rats [5]; 1000 μg/kg): 100%
- Number of Erections/Rat/30 Minutes (Sprague Dawley rats [5]; 1000 μg/kg): 1.5
- % Rats with Penile Erection (Sprague Dawley rats [5]; 1500 μg/kg): 50%
- Number of Erections/Rat/30 Minutes (Sprague Dawley rats [5]; 1500 μg/kg): 0.5
- Rates of appetitive level changing, pacing, lordosis, female mounts or rejection responses (Female Long-Evans rats [6]): without affecting
- Number of solicitations (Female Long-Evans rats [6]; fully and partially primed female rats): increased the number of solicitations significantly
- Ejaculation return latencies (Female Long-Evans rats [7]): increase
- Lordosis or defensive responding (Female Long-Evans rats [7]): no effect
- Number of exits or returns made by the females (Female Long-Evans rats [7]): no significant effect
- Number of solicitations, hops and darts, and female mounts compared to controls (Female Long-Evans rats [7]; fully primed): increased the number of solicitations, hops and darts, and female mounts significantly
- Rats with observed erections, without pre-administration of SHU9119 (Sprague Dawley rats [8]): 100%
- α-phase [9]: 5 min
- β-phase [9]: 25 min

Compound: Melanotan-II [reference compound]
- % Rats with Penile Erection (Sprague Dawley rats [4]; intravenous, 10.0 μg/kg): 17%
- Number of Erections/Rat/30 Minutes (Sprague Dawley rats [4]; intravenous, 10.0 μg/kg): 0.3
- % Rats with Penile Erection (Sprague Dawley rats [4]; intravenous, 100.0 μg/kg): 75%
- Number of Erections/Rat/30 Minutes (Sprague Dawley rats [4]; intravenous, 100.0 μg/kg): 1.0
- Optimal efficacious dose intravenously (Sprague Dawley rats [4]; rat model of penile erection): 100 μg/kg of body weight
- Dose resulting in equivalent penile response by intravenous injection (Sprague Dawley rats [4]): 100 μg/kg of body weight
- Efficacious dose (penile erection in 100% of animals) (Sprague Dawley rats [4]): ≥ 0.1 mg/kg
- Treated men developing clinically apparent erections [10]: 8 of 10
- Mean duration of tip rigidity greater than 80% ([10]; placebo 3.0 minutes): 38 min
- % Rats with Penile Erection (Sprague Dawley rats [5]; 100 μg/kg): 25%
- Number of Erections/Rat/30 Minutes (Sprague Dawley rats [5]; 100 μg/kg): 0.25
- % Rats with Penile Erection (Sprague Dawley rats [5]; 500 μg/kg): 100%
- Number of Erections/Rat/30 Minutes (Sprague Dawley rats [5]; 500 μg/kg): 1.0
- Period of the penile erection response after nasal administration (Sprague Dawley rats [5]; rats, 30 minute observation in ten-minute periods): 2nd and 3rd ten-minute period
